ChEMBL document CHEMBL1201862, “PubChem BioAssay data set” (2004)
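How tested: cells in 96-well plates exposed to compound for 48 hours at five concentrations. At the GI50, growth is halved.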 Activity calls are given as the source filed them. Cut-off read from the data, not from the text of the source: active = GI50 up to about 1.1 µM and inactive = higher.

Columns and labels:
Experiment in all cases: inhibition of tumour cell growth, NCI panel, 48 h
SN12C = system: SN12C
IGROV-1 = system: IGROV-1
OVCAR-8 = system: OVCAR-8
UACC-62 = system: UACC-62
NCI-H226 = system: NCI-H226
NCI-H23 = system: NCI-H23
HCT-15 = system: HCT-15
A549 = system: A549
EKVX = system: EKVX
U-251 = system: U-251
ACHN = system: ACHN
HCT-116 = system: HCT-116
SK-MEL-28 = system: SK-MEL-28
SNB-75 = system: SNB-75
786-0 = system: 786-0
NCI-H522 = system: NCI-H522

Structure (SMILES)	GI50 (SN12C)	GI50 (IGROV-1)	GI50 (OVCAR-8)	GI50 (UACC-62)	GI50 (NCI-H226)	GI50 (NCI-H23)	GI50 (HCT-15)	GI50 (A549)	GI50 (EKVX)	GI50 (U-251)	GI50 (ACHN)	GI50 (HCT-116)	GI50 (SK-MEL-28)	GI50 (SNB-75)	GI50 (786-0)	GI50 (NCI-H522)
C[n+]1c2ccccc2cc2c(CNC(CCCNC(=N)N)C(=O)O)cccc21 (configuration not stated)	0.65 µM (active)	7.4 µM (inactive)	1.8 µM (inactive)	0.643 µM (active)	3.05 µM (inactive)	3.14 µM (inactive)	0.394 µM	3.05 µM (inactive)	4.66 µM (inactive)	1.61 µM (inactive)	0.594 µM (active)	0.301 µM (active)	1.34 µM (inactive)	5.62 µM (inactive)	0.75 µM (active)	1.4 µM (inactive)
O=C(O)Cn1c(=O)[nH]c(=O)c2[nH]cnc21	> 100 µM (inactive)	> 100 µM (inactive)	> 100 µM (inactive)	> 100 µM (inactive)	–	> 100 µM (inactive)	> 100 µM	> 100 µM (inactive)	> 100 µM (inactive)	> 100 µM (inactive)	> 100 µM (inactive)	> 100 µM (inactive)	> 100 µM (inactive)	> 100 µM (inactive)	> 100 µM (inactive)	> 100 µM (inactive)
N=C(N)NNC(=O)CCn1[nH]c(=O)c(Cl)c(Cl)c1=O	> 100 µM (inactive)	> 100 µM (inactive)	> 100 µM (inactive)	> 100 µM (inactive)	> 100 µM (inactive)	> 100 µM (inactive)	> 100 µM	> 100 µM (inactive)	> 100 µM (inactive)	> 100 µM (inactive)	> 100 µM (inactive)	–	> 100 µM (inactive)	> 100 µM (inactive)	> 100 µM (inactive)	> 100 µM (inactive)
Cc1ccc(C)c(NC(=O)CCC(=O)CC(=O)C(C)(C)C)c1	> 100 µM (inactive)	> 100 µM (inactive)	> 100 µM (inactive)	> 100 µM (inactive)	–	> 100 µM (inactive)	> 100 µM	> 100 µM (inactive)	> 100 µM (inactive)	> 100 µM (inactive)	> 100 µM (inactive)	> 100 µM (inactive)	> 100 µM (inactive)	> 100 µM (inactive)	> 100 µM (inactive)	> 100 µM (inactive)
O=C1[C@@H]2C(c3ccncc3)=NO[C@@H]2C(=O)N1c1ccc(Cc2ccc(N3C(=O)[C@H]4C(c5ccncc5)=NO[C@H]4C3=O)cc2)cc1	> 100 µM (inactive)	> 100 µM (inactive)	> 100 µM (inactive)	> 100 µM (inactive)	73.8 µM (inactive)	> 100 µM (inactive)	> 100 µM	> 100 µM (inactive)	> 100 µM (inactive)	> 100 µM (inactive)	> 100 µM (inactive)	–	> 100 µM (inactive)	> 100 µM (inactive)	> 100 µM (inactive)	–
COc1ccc2c(c1)N1CCc3cc(OC)c(OC)cc3C1C2 (configuration not stated)	51.9 µM (inactive)	28.4 µM (inactive)	> 100 µM (inactive)	23.6 µM (inactive)	35.5 µM (inactive)	50.1 µM (inactive)	–	47.8 µM (inactive)	> 100 µM (inactive)	> 100 µM (inactive)	53 µM (inactive)	–	89.1 µM (inactive)	–	54.6 µM (inactive)	23.7 µM (inactive)
O=[N+]([O-])c1cccnc1S(=O)(=O)c1ccccc1	9.2 µM (inactive)	8.13 µM (inactive)	13.8 µM (inactive)	11.6 µM (inactive)	15.8 µM (inactive)	15.8 µM (inactive)	7.55 µM	21.8 µM (inactive)	6.4 µM (inactive)	8.95 µM (inactive)	4.83 µM (inactive)	6.93 µM (inactive)	20 µM (inactive)	19.9 µM (inactive)	2.48 µM (inactive)	1.46 µM (inactive)
Cc1ccc(NC(=O)CSc2nnc(-c3ccc(/N=C\c4ccc(Cl)cc4)cc3)o2)cc1	> 100 µM (inactive)	–	> 100 µM (inactive)	> 100 µM (inactive)	> 100 µM (inactive)	> 100 µM (inactive)	> 100 µM	> 100 µM (inactive)	> 100 µM (inactive)	> 100 µM (inactive)	> 100 µM (inactive)	> 100 µM (inactive)	> 100 µM (inactive)	72.8 µM (inactive)	> 100 µM (inactive)	34.3 µM (inactive)
CC(C)(C)c1ccc2c(c1)C(O)(c1ccccc1)c1cc(C(C)(C)C)ccc1C2(O)C(F)(F)F (configuration not stated)	1.76 µM (inactive)	2.15 µM (inactive)	2.12 µM (inactive)	1.63 µM (inactive)	1.05 µM (active)	1.81 µM (inactive)	1.39 µM	1.88 µM (inactive)	3.03 µM (inactive)	1.81 µM (inactive)	2.14 µM (inactive)	1.87 µM (inactive)	2.09 µM (inactive)	2.13 µM (inactive)	1.88 µM (inactive)	1.64 µM (inactive)
OC(CCl)CN1CC[N+]2(CC1)CC[N+]1(CCN(CC(O)CCl)CC1)CC2 (configuration not stated) [PROSPIDIUM CHLORIDE]	> 50 µM (inactive)	> 50 µM (inactive)	> 50 µM (inactive)	–	> 50 µM (inactive)	> 50 µM (inactive)	> 50 µM	> 50 µM (inactive)	> 50 µM (inactive)	> 50 µM (inactive)	> 50 µM (inactive)	> 50 µM (inactive)	> 50 µM (inactive)	> 50 µM (inactive)	> 50 µM (inactive)	> 50 µM (inactive)
O=C(Nc1ccn(CCI)c(=O)n1)c1ccccc1	> 100 µM (inactive)	> 100 µM (inactive)	> 100 µM (inactive)	> 100 µM (inactive)	> 100 µM (inactive)	–	> 100 µM	> 100 µM (inactive)	> 100 µM (inactive)	> 100 µM (inactive)	> 100 µM (inactive)	> 100 µM (inactive)	> 100 µM (inactive)	> 100 µM (inactive)	> 100 µM (inactive)	> 100 µM (inactive)
CC(O)C(N/C=C1/N=C(c2ccccc2)OC1=O)C(=O)O (configuration not stated)	–	> 100 µM (inactive)	> 100 µM (inactive)	> 100 µM (inactive)	> 100 µM (inactive)	> 100 µM (inactive)	10 µM	> 100 µM (inactive)	> 100 µM (inactive)	> 100 µM (inactive)	> 100 µM (inactive)	> 100 µM (inactive)	> 100 µM (inactive)	> 100 µM (inactive)	> 100 µM (inactive)	> 100 µM (inactive)
OC1=CN=C(c2ccccc2)Oc2ccccc21	> 100 µM (inactive)	> 100 µM (inactive)	> 100 µM (inactive)	> 100 µM (inactive)	33 µM (inactive)	> 100 µM (inactive)	> 100 µM	> 100 µM (inactive)	> 100 µM (inactive)	> 100 µM (inactive)	> 100 µM (inactive)	45.4 µM (inactive)	> 100 µM (inactive)	30.7 µM (inactive)	46.7 µM (inactive)	–
CC(=O)OC1CCn2nnc(CO[Si](C)(C)C(C)(C)C)c21 (configuration not stated)	> 100 µM (inactive)	> 100 µM (inactive)	> 100 µM (inactive)	–	> 100 µM (inactive)	> 100 µM (inactive)	> 100 µM	> 100 µM (inactive)	> 100 µM (inactive)	> 100 µM (inactive)	> 100 µM (inactive)	> 100 µM (inactive)	> 100 µM (inactive)	21 µM (inactive)	> 100 µM (inactive)	> 100 µM (inactive)
Cc1cc(N(CCC#N)S(=O)(=O)c2ccccc2)ccc1/C=C1\N=C(c2ccc(Cl)cc2)OC1=O	> 100 µM (inactive)	> 100 µM (inactive)	> 100 µM (inactive)	> 100 µM (inactive)	38.1 µM (inactive)	> 100 µM (inactive)	> 100 µM	> 100 µM (inactive)	> 100 µM (inactive)	54 µM (inactive)	> 100 µM (inactive)	> 100 µM (inactive)	> 100 µM (inactive)	–	> 100 µM (inactive)	–
CCOC(=O)C=C1CCN(C(=O)c2ccccc2)CC1	> 100 µM (inactive)	> 100 µM (inactive)	> 100 µM (inactive)	> 100 µM (inactive)	–	> 100 µM (inactive)	> 100 µM	> 100 µM (inactive)	> 100 µM (inactive)	> 100 µM (inactive)	> 100 µM (inactive)	> 100 µM (inactive)	> 100 µM (inactive)	> 100 µM (inactive)	> 100 µM (inactive)	–
O=c1[nH]c(=O)n(C2CC(O)C(CO)O2)cc1C#Cc1ccc(F)cc1 (configuration not stated)	> 100 µM (inactive)	> 100 µM (inactive)	> 100 µM (inactive)	> 100 µM (inactive)	> 100 µM (inactive)	> 100 µM (inactive)	> 100 µM	> 100 µM (inactive)	> 100 µM (inactive)	> 100 µM (inactive)	> 100 µM (inactive)	–	> 100 µM (inactive)	> 100 µM (inactive)	> 100 µM (inactive)	> 100 µM (inactive)
CN(O)C(=O)Cc1ccccc1	> 100 µM (inactive)	> 100 µM (inactive)	> 100 µM (inactive)	> 100 µM (inactive)	> 100 µM (inactive)	> 100 µM (inactive)	–	> 100 µM (inactive)	–	> 100 µM (inactive)	> 100 µM (inactive)	> 100 µM (inactive)	> 100 µM (inactive)	67 µM (inactive)	> 100 µM (inactive)	> 100 µM (inactive)
O=C(O)c1oc2cccc3c2c1CCC3	> 100 µM (inactive)	> 100 µM (inactive)	> 100 µM (inactive)	41.7 µM (inactive)	–	> 100 µM (inactive)	> 100 µM	> 100 µM (inactive)	> 100 µM (inactive)	> 100 µM (inactive)	> 100 µM (inactive)	> 100 µM (inactive)	> 100 µM (inactive)	99.3 µM (inactive)	> 100 µM (inactive)	> 100 µM (inactive)
